The values that follow come from US20110136666A1, “CHEMICAL COMPOUNDS” (SYNGENTA CROP PROTECTION, INC., priority 2008, published 2011).

Format in all cases: in vivo
Assay [1] relates to Ipomea hederaceae (IPOHE). As to the kind of experiment: Post-emergence biological efficacy, glasshouse pot test. Conditions: Ipomoea hederacea, 312 h, after 13 days, 100=total damage, 0=no damage, read-out: Percentage damage caused to weed species IPONE. The protocol:
(§1) Seeds of Alopecurus myosuroides (ALOMY), Setaria faberi (SETFA), Echinochloa crus-galli (ECHCG), Solanum nigrum (SOLNI), Amaranthus retroflexus (AMARE) and Ipomea hederaceae (IPOHE) were sown in standard soil in pots. After cultivation for 8 days under controlled conditions in a glasshouse (at 24/16° C., day/night; 14 hours light; 65% humidity), the plants were sprayed with an aqueous spray solution derived from the formulation of the technical active ingredient in acetone/water (50:50) solution containing 0.5% Tween 20 (polyoxyethylene sorbitan monolaurate, CAS RN 9005-64-5) to give a final dose of 250 or 1000 g/ha of test compound.
(§2) The test plants were then grown on under controlled conditions in a glasshouse (at 24/16° C., day/night; 14 hours light; 65% humidity) and watered twice daily. After 13 days the test was evaluated (100=total damage to plant; 0=no damage to plant).

Assay [2] has as its system Solanum nigrum (SOLNI). The description is as above. Conditions: 312 h, after 13 days, 100=total damage, 0=no damage, read-out: Percentage damage caused to weed species SOLNI. How it is done:
as §1, §2

Assay [3] deals with Alopecurus myosuroides (ALOMY). The assay is described as above. To be noted: 312 h, after 13 days, 100=total damage, 0=no damage, read-out: Percentage damage caused to weed species ALOMY. How it is done: as §1, §2
Assay [4] concerns Setaria faberi (SETFA). The description is as above. Conditions: 312 h, after 13 days, 100=total damage, 0=no damage, read-out: Percentage damage caused to weed species SETFA. How it is done:
as §1, §2

In assay [5] the test system is Echinochloa crus-galli (ECHCG). The description is as above. To be noted: 312 h, after 13 days, 100=total damage, 0=no damage, read-out: Percentage damage caused to weed species ECHCG. The protocol:
as §1, §2

Assay [6] concerns Amaranthus retroflexus (AMARE). The description is as above. Conditions: 312 h, after 13 days, 100=total damage, 0=no damage, read-out: Percentage damage caused to weed species AMARE. The protocol: as §1, §2
The test system of assay [7] is Ipomea hederaceae (IPOHE). Description: Pre-emergence biological efficacy, glasshouse pot test. Conditions: Ipomoea hederacea, 312 h, after 13 days, 100=total damage, 0=no damage, read-out: Percentage damage caused to weed species IPOHE. How it is done: as §1, with “one day” for “8 days”
(§3) The test plants were then grown under controlled conditions in the glasshouse (at 24/16° C., day/night; 14 hours light; 65% humidity) and watered twice daily. After 13 days the test was evaluated (100=total damage to plant; 0=no damage to plant).

The test system of assay [8] is Solanum nigrum (SOLNI). Described as above. Conditions: 312 h, after 13 days, 100=total damage, 0=no damage, read-out: Percentage damage caused to weed species SOLNI. The protocol:
as §1, with “one day” for “8 days”
as §3

Assay [9] has as its system Alopecurus myosuroides (ALOMY). The description is as above. To be noted: 312 h, after 13 days, 100=total damage, 0=no damage, read-out: Percentage damage caused to weed species ALOMY. The protocol:
as §1, with “one day” for “8 days”
as §3

For assay [10], the system named is Setaria faberi (SETFA). Described as above. Conditions: 312 h, after 13 days, 100=total damage, 0=no damage, read-out: Percentage damage caused to weed species SETFA. How it is done:
as §1, with “one day” for “8 days”
as §3

In assay [11] the test system is Echinochloa crus-galli (ECHCG). The assay is described as above. To be noted: 312 h, after 13 days, 100=total damage, 0=no damage, read-out: Percentage damage caused to weed species ECHCG. How it is done: as §1, with “one day” for “8 days”
as §3

The subject of assay [12] is Amaranthus retroflexus (AMARE). Described as above. Conditions: 312 h, after 13 days, 100=total damage, 0=no damage, read-out: Percentage damage caused to weed species AMARE. How it is done: as §1, with “one day” for “8 days”
as §3

Structures are written as SMILES.

On to `COC(=O)c1nc(-c2ccsc2Cl)nc(N)c1Cl` [Compound 2-18, 4-Amino-5-chloro-2-(2-chlorothiophen-3-yl)-6-methoxycarbonyl pyrimidine], for which the pest or weed control at 250 g/ha in assay [1] came out at 40%; with Solanum nigrum (SOLNI) [2], 0%; in [3] it was 10%; in the assay with Setaria faberi (SETFA) [4] it was 10%; in assay [5], 10%; in assay [6], 20%. The pest or weed control at 250 g/ha (in [7]; in the assay with Solanum nigrum (SOLNI) [8]; in [9]; with Setaria faberi (SETFA) [10]; in [11]; in assay [12]) was 0% throughout.
Regarding `COC(=O)c1nc(-c2cc(Cl)sc2Cl)nc(N)c1Cl` [Compound 2-19, 4-Amino-5-chloro-2-(2,5-dichlorothiophen-3-yl)-6-methoxycarbonyl pyrimidine], the pest or weed control at 1000 g/ha in assay [1] came to 70%; in the assay on Solanum nigrum (SOLNI) [2] it was 70%; in [3], 0%; in the assay on Setaria faberi (SETFA) [4], 30%; in [5], 10%; in [6], 100%. In addition, the pest or weed control at 1000 g/ha turned out to be 30% in [7]; 20% with Solanum nigrum (SOLNI) [8]; 0% in assay [9]; 0% in the assay on Setaria faberi (SETFA) [10]; 0% in assay [11]; 20% in assay [12].
Consider `COC(=O)c1nc(-c2ccoc2)nc(N)c1Cl` [Compound 2-34, 4-Amino-5-chloro-2-(furan-3-yl)-6-methoxycarbonyl pyrimidine], for which the pest or weed control at 1000 g/ha in assay [1] came out at 50%; in the assay on Solanum nigrum (SOLNI) [2], 10%; in assay [3] it was 10%; with Setaria faberi (SETFA) [4] it was 0%; in assay [5], 0%; in assay [6] it was 30%. Also, the pest or weed control at 1000 g/ha (in [7]; with Solanum nigrum (SOLNI) [8]; in assay [9]; with Setaria faberi (SETFA) [10]; in assay [11]; in [12]) was 0% in each case.
Consider `COC(=O)c1nc(-c2cc3ccccc3s2)nc(N)c1Cl` [Compound 2-54, 4-Amino-2-(benzothiophen-2-yl)-5-chloro-6-methoxycarbonyl pyrimidine], for which the pest or weed control at 1000 g/ha in [1] stood at 80%; in the assay with Solanum nigrum (SOLNI) [2], 40%; in [3] it was 0%; in the assay with Setaria faberi (SETFA) [4], 50%; in assay [5], 70%; in [6], 70%. For the same compound, the pest or weed control at 1000 g/ha turned out to be 0% in assay [7]; 20% in the assay with Solanum nigrum (SOLNI) [8]; 20% in assay [9]; 20% with Setaria faberi (SETFA) [10]; 70% in assay [11]; 70% in assay [12].
For `COC(=O)c1nc(-c2cc3cc(C)ccc3s2)nc(N)c1Cl` [Compound 2-55, 4-Amino-5-chloro-6-methoxycarbonyl-2-(5-methylbenzothiophen-2-yl)-pyrimidine], the pest or weed control at 250 g/ha stood at 40% in [1]; 30% with Solanum nigrum (SOLNI) [2]; 10% in assay [3]; 0% with Setaria faberi (SETFA) [4]; 0% in assay [5]; 70% in assay [6]. Further, the pest or weed control at 250 g/ha in assay [7] worked out at 10%; in the assay with Solanum nigrum (SOLNI) [8] it was 0%; in assay [9] it was 0%; in the assay on Setaria faberi (SETFA) [10], 0%; in assay [11] it was 0%; in assay [12], 10%.
With `COC(=O)c1nc(-c2csc3ccccc23)nc(N)c1Cl` [Compound 2-56, 4-Amino-2-(benzothiophen-3-yl)-5-chloro-6-methoxycarbonyl pyrimidine], the pest or weed control at 1000 g/ha came out at 20% in assay [1]; 40% with Solanum nigrum (SOLNI) [2]; 20% in assay [3]; 10% with Setaria faberi (SETFA) [4]; 40% in assay [5]; 100% in assay [6]. Further, the pest or weed control at 1000 g/ha was determined as 0% in [7]; 0% in the assay with Solanum nigrum (SOLNI) [8]; 0% in assay [9]; 0% in the assay on Setaria faberi (SETFA) [10]; 0% in assay [11]; 60% in assay [12].
Consider `COC(=O)c1nc(-c2csc3ccc(C)cc23)nc(N)c1Cl` [Compound 2-57, 4-amino-5-chloro-6-methoxycarbonyl-2-(5-methylbenz-[b]thiophen-3-yl)-pyrimidine], for which the pest or weed control at 1000 g/ha in [1] was found to be 20%; in the assay with Solanum nigrum (SOLNI) [2] it was 0%; in assay [3], 0%; with Setaria faberi (SETFA) [4] it was 0%; in [5] it was 0%; in assay [6], 0%. Moreover, the pest or weed control at 1000 g/ha (in assay [7]; in the assay with Solanum nigrum (SOLNI) [8]; in [9]; with Setaria faberi (SETFA) [10]; in [11]; in [12]) was 0% in each case.
Turning to `COC(=O)c1nc(-c2c(C)n[nH]c2C)nc(N)c1Cl` [Compound 2-72, 4-Amino-5-chloro-2-(3,5-dimethylpyrazol-4-yl)-6-methoxycarbonyl pyrimidine], the pest or weed control at 250 g/ha (in assay [1]; in the assay with Solanum nigrum (SOLNI) [2]; in assay [3]; in the assay with Setaria faberi (SETFA) [4]; in assay [5]; in assay [6]) was 0% each time. Besides, the pest or weed control at 250 g/ha (in [7]; in the assay with Solanum nigrum (SOLNI) [8]; in assay [9]; with Setaria faberi (SETFA) [10]; in assay [11]; in assay [12]) was 0% in each case.
